Results as given in patent US11696928B2, “Compounds and use thereof in the expansion of stem cells and/or progenitor cells” (UNIVERSITE DE MONTREAL, priority 2017, dated 2023).

Assays:
[1] = target: T1, AhR (Homo sapiens, UniProt P35869); experiment: Inhibition of AhR-mediated gene transcription (HEK-XRE 11.1 luciferase reporter, MeBIO induction); format: cell-based; conditions: HEK-XRE 11.1 cells, MeBIO 0.1 nM, luminescence after 24 hours
T1 construct: One of the resultant clones was named HEK-XRE 11.1, and used in the reporter gene assays; endogenous in cells; host or cells: HEK-XRE 11.1 (HEK cells stably carrying the AhR-responsive luciferase reporter X4-4.27 and phRL-CMV)
T1 sequence (P35869 11-848): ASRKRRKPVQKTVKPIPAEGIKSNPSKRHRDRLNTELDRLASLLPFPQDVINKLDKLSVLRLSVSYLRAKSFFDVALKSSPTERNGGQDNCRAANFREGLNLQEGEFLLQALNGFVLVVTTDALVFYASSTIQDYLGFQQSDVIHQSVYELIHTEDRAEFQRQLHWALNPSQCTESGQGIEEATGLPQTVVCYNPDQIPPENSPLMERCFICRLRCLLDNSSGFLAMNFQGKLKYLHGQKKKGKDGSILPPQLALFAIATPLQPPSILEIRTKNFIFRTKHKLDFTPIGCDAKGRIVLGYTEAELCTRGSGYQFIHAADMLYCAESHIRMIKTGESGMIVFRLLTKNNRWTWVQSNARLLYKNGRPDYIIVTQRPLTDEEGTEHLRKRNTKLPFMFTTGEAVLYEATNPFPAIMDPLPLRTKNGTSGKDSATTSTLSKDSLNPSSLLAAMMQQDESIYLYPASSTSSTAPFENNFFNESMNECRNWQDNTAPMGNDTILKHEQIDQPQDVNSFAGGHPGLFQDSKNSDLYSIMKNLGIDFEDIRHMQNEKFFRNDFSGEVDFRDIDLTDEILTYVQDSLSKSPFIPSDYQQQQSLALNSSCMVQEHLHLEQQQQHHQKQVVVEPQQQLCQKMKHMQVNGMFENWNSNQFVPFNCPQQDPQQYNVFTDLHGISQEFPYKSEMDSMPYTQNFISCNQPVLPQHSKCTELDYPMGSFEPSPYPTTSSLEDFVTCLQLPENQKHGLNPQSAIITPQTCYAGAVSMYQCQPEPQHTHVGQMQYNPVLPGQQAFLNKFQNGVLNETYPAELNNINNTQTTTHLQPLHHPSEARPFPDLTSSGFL
Method: HEK cells line was transfected with an AhR-responsive firefly luciferase reporter gene X4-4.27 and the stable transfectants generated were again transfected with phRL-CMV (a Renilla luciferase expression vector; Promega) along with pBAsi-hU6 Pur DNA (a plasmid carrying the puromycin-resistant gene; TaKaRa, Shiga, Japan), and maintained in the presence of both hygromycin B and puromycin (2 mg/mL). One of the resultant clones was named HEK-XRE 11.1, and used in the reporter gene assays.
HEK-XRE 11.1 cells were plated in 384-well plates at a density of 25,000 cells in 50 uL volume per well. The induction of ARh pathway was done by addition of MeBIO at 0.1 nM concentration. ARh antagonist compounds were then added to seeded cells in serial dilutions (8 dilutions, 1:[…] down to 5 nM) in duplicate wells. Renilla expression was not used as internal control. On each plate, Compound 1001 and SR1 were added as dose control (8 dilutions, 1:3, 5 mM down to 2.5 nM for SR1 and 2 mM down to 1 nM for compound 1001). Luminescence activity was evaluated after 24 hours culture using Lumi-384-CellTiterGlo-Corning protocol. Dose-response curves were generated using nonlinear regression in Excel.

[2] = system: Human CD34+ cord blood (CB) cells; experiment: CD34+ activity assessment (7-day expansion of pre-expanded CD34+ cells, flow cytometry); format: cell-based; conditions: concentration at which compound/vehicle ratio of CD34+ cell number is >= 1.5, 7 days, with 35 nM UM0128171
Method: Human CD34+ cord blood (CB) cells were isolated from fresh units using RosetteSep™ 0034 pre-enrichment cocktail followed by CD34 positive selection using EasySep Kit™ (StemCell Technologies). The cells were then pre-expanded in bulk, by culturing at 37° C. for 6 days in HSC expansion media consisting of StemSpan ACF (StemCell Technologies) supplemented with 100 ng/mL Stem Cell Factor (SCF, Shenandoah), 100 ng/mL FMS-like Tyrosine Kinase 3 Ligand (FLT3L, Shenandoah), 50 ng/mL Thrombopoietin (TPO, Shenandoah), 2 mM GlutaMAX™ (Invitrogen), 10 μg/mL low density lipoproteins (LDL, StemCell Technologies), 10 μg/mL Ciprofloxacin and 35 nM UM0128171. […] Following the pre-expansion, cells were harvested, aliquoted and frozen until use.
For each activity assessment, CD34+ pre-expanded cells (approximately 2000 per well in a 384-well plate) were cultured in HSC expansion media, in the presence of 35 nM UM0128171. Compounds were serially diluted (1/2) in DMSO (10 dilutions per compound) and added to the cells in order to achieve a 1/1000 final dilution. StemRegenin1 (SR1) and/or Compound 1001 were included in all experiments as controls to monitor assay performance. The plate was incubated at 37° C. for 7 days in static conditions (i.e. no shaking and no addition of media). Flow cytometry analysis was performed at the end of the 7-day expansion. Cells were stained with PE-labeled anti-human CD45RA (BD Biosciences) and APC-labeled anti-human CD34 (BD Biosciences) and analyzed using Intellicyt IQue cytometer equipped with ForeCyt software. Gates were drawn around the populations of interest to obtain cell numbers and relative proportions. The EC1.5 value, which is the concentration at which the compound/vehicle ratio is greater or equal to 1.5, was calculated by plotting the CD34+ cell number against concentrations (log-scale) in a 4-PL curve and fitting the curve using IDBS XLfit (set model 251) in Microsoft Excel.

SMILES | IC50 ([1]; Table 1) [nM] | EC1.5 ([2]; Table 1) [nM] | IC50 ([1]; Table 2) [nM] | EC1.5 ([2]; Table 2) [nM]
Nc1c(C(=O)Nc2ccncc2)sc2ncc(C(F)(F)F)cc12 [Compound 1013] | > 500 | 100 to 1000 |  | 
COc1cccc(NC(=O)c2sc3ncc(C(F)(F)F)cc3c2N)c1 [Compound 1085] | 50 to 500 | 100 to 1000 |  | 
CCOc1ccc(NC(=O)c2sc3ccc(C(F)(F)F)cc3c2N)cc1 [Compound 1147] | 50 to 500 | >5000 |  | 
COc1ccc(NC(=O)c2sc3ccc(C(F)(F)F)cc3c2N)cc1Cl [Compound 1136] | < 50 | >5000 |  | 
COc1ccc(NC(=O)c2sc3nc4c(cc3c2N)CCCC4)cc1 [Compound 1105] | 50 to 500 | >5000 |  | 
Nc1c(C(=O)Nc2ccccc2)sc2nc3c(cc12)CCCCC3 [Compound 1113] | 50 to 500 | 1000 to 5000 |  | 
Nc1c(C(=O)Nc2cc(F)cc(F)c2)sc2ncc(C(F)(F)F)cc12 [Compound 1079] | 50 to 500 | 1000 to 5000 |  | 
Nc1c(C(=O)Nc2ccc(F)cc2)sc2cnc(C(F)(F)F)cc12 [Compound 1088] | < 50 | >5000 |  | 
COCCc1ccc(NC(=O)c2sc3ncc(C(F)(F)F)cc3c2N)cc1 [Compound 1046] | 50 to 500 | >5000 |  | 
Nc1c(C(=O)Nc2ccccc2)sc2ncc(C(F)(F)F)cc12 [Compound 1008] | > 500 | 100 to 1000 |  | 
Nc1c(C(=O)Nc2cccc(Cl)c2)sc2ccc(C(F)(F)F)cc12 [Compound 1144] | < 50 | >5000 |  | 
Cc1cnc(NC(=O)c2sc3ncc(C(F)(F)F)cc3c2N)s1 [Compound 1023] | 50 to 500 | >5000 |  | 
Nc1c(C(=O)Nc2ccccc2)sc2ncc(C3CC3)cc12 [Compound 1091] | 50 to 500 | 100 to 1000 |  | 
Nc1c(C(=O)Nc2ccncn2)sc2ncc(C(F)(F)F)cc12 [Compound 1102] | 50 to 500 | >5000 |  | 
Cc1ccc(NC(=O)c2sc3ncc(C(F)(F)F)cc3c2N)cc1 [Compound 1047] | < 50 | 100 to 1000 |  | 
Nc1c(C(=O)Nc2ccc(Cl)cc2)sc2nc3c(cc12)CCC3 [Compound 1082] | < 50 | <100 |  | 
Nc1c(C(=O)Nc2ccc(Cl)cc2)sc2ccc(C(F)(F)F)cc12 [Compound 1066] | < 50 | 100 to 1000 |  | 
Cc1ccc2sc(C(=O)Nc3ccc(OC(F)(F)F)cc3)c(N)c2c1 [Compound 1151] | 50 to 500 | >5000 |  | 
Cc1cnc2sc(C(=O)Nc3ccc(OC(F)(F)F)cc3)c(N)c2c1 [Compound 1149] | < 50 | 100 to 1000 |  | 
Nc1c(C(=O)Nc2cccc(F)c2)sc2ncc(C(F)(F)F)cc12 [Compound 1077] | < 50 | 100 to 1000 |  | 
Nc1c(C(=O)Nc2ccccn2)sc2ncc(C(F)(F)F)cc12 [Compound 1022] | < 50 | 100 to 1000 |  | 
Nc1c(C(=O)Nc2cccnc2)sc2ncc(C(F)(F)F)cc12 [Compound 1015] | > 500 | 100 to 1000 |  | 

SMILES | IC50 ([1]; Table 1) [nM] | EC1.5 ([2]; Table 1) [nM] | IC50 ([1]; Table 2) [nM] | EC1.5 ([2]; Table 2) [nM]
Cc1ccc(NC(=O)c2sc3ccc(C)cc3c2N)cc1 [Compound 1131] | 50 to 500 | >5000 |  | 
Cc1ccc2sc(C(=O)Nc3ccc(F)cc3)c(N)c2c1 [Compound 1120] | < 50 | <100 |  | 
COc1ccc(NC(=O)c2sc3ncc(C(F)(F)F)cc3c2N)cc1Cl [Compound 1087] | < 50 | <100 |  | 
Cc1cnc2sc(C(=O)Nc3ccc(F)cc3)c(N)c2c1 [Compound 1115] | < 50 | <100 |  | 
Nc1c(C(=O)Nc2ccccc2)sc2ncc(Cl)cc12 [Compound 1004] | < 50 | 100 to 1000 |  | 
Nc1c(C(=O)Nc2ccccn2)sc2nc3c(cc12)CCC3 [Compound 1007] | < 50 | 100 to 1000 |  | 
Nc1c(C(=O)Nc2ccsc2)sc2ccc(C(F)(F)F)cc12 [Compound 1152] | < 50 | >5000 |  | 
Cc1cnc2sc(C(=O)Nc3ccc4c(c3)OCCO4)c(N)c2c1 [Compound 1141] | 50 to 500 | 100 to 1000 |  | 
Nc1c(C(=O)Nc2ccc(C(F)(F)F)cc2)sc2ncc(C(F)(F)F)cc12 [Compound 1061] | < 50 | <100 |  | 
Nc1c(C(=O)Nc2cccc(Cl)c2)sc2ncc(C(F)(F)F)cc12 [Compound 1093] | < 50 | <100 |  | 
Nc1c(C(=O)Nc2ccc3c(c2)OCO3)sc2ncc(C(F)(F)F)cc12 [Compound 1098] | 50 to 500 | <100 |  | 
Nc1c(C(=O)Nc2ccc3ncsc3c2)sc2ncc(C(F)(F)F)cc12 [Compound 1029] | 50 to 500 | 100 to 1000 |  | 
Cc1ccc2sc(C(=O)Nc3ccccc3)c(N)c2n1 [Compound 1072] | 50 to 500 | >5000 |  | 
COc1ccc(NC(=O)c2sc3ccc(C(F)(F)F)nc3c2N)cc1 [Compound 1116] | 50 to 500 | 100 to 1000 |  | 
Cc1ccc2sc(C(=O)Nc3ccc(Br)cc3)c(N)c2c1 [Compound 1132] | 50 to 500 | >5000 |  | 
Cc1ccc(NC(=O)c2sc3cnc(C(F)(F)F)cc3c2N)cc1 [Compound 1052] | 50 to 500 | 1000 to 5000 |  | 
Nc1c(C(=O)Nc2ccc(CCO)cc2)sc2ncc(C(F)(F)F)cc12 [Compound 1017] | 50 to 500 | 100 to 1000 |  | 
Nc1c(C(=O)Nc2ccc(F)cc2)oc2ncc(C(F)(F)F)cc12 [Compound 1154] |  |  | < 50 | 100 to 1000
COc1ccc(NC(=O)c2sc3ccc(C(F)(F)F)cc3c2N)cc1 [Compound 1083] | 50 to 500 | <100 |  | 
Nc1c(C(=O)Nc2ccc3[nH]ncc3c2)sc2ncc(C(F)(F)F)cc12 [Compound 1110] | 50 to 500 | >5000 |  | 
Nc1c(C(=O)Nc2ccncc2)sc2nc3c(cc12)CCC3 [Compound 1014] | 50 to 500 | 1000 to 5000 |  | 
Nc1c(C(=O)Nc2ccc(F)c(Cl)c2)sc2ncc(C(F)(F)F)cc12 [Compound 1074] | < 50 | 100 to 1000 |  | 
